# Measurements as given in patent US6914045B2, “Glycopeptide antibiotics” (Wyeth Holdings Corporation, priority 2001, dated 2005).
# Key:
# [1] = test system: Staphylococcus aureus-SMITH (GC 4543); test: acute lethal infection in mice; type: in vivo; details: acute lethal infection, female CD-1 mice, intraperitoneal challenge, intravenous 30 min. after infection, 7 day survival
# How it was run: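 Mice (female CD-1, 20+/−2 gm) receive bacteria ip in broth or hog gastric mucin, then test agent iv after 30 min. Median effective dose is calculated from 7 day survival pooled across 3 tests.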
# Staphylococcus sp. = test: in vitro antibacterial evaluation, MIC by broth dilution; type: cell-based; details: broth dilution, 18 hours at 35° C.
# How it was run: (§1)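 Step 1: dilute antibiotic across 64-0.06 μg/mL in Muller-Hinton II […]. Step 2: inoculate at 5×10^5 CFU/mL.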
# Escherichia coli = test: as above; type: cell-based; details: 18 hours at 35° C.
# How it was run: as §1
# Enterococcus sp. = test: as above; type: cell-based; details: broth dilution, 18 hours at 35° C.
# How it was run: as §1
# Streptococcus sp. = test: as above; type: cell-based; details: broth dilution, 18 hours at 35° C.
# How it was run: as §1
compound,measurement,setting,value
"COc1cccc(C2OCC3OC(OC4C(CO)OC(Oc5ccc(CC6NC(=O)C(C(C)c7ccccc7)NC(=O)CNC(=O)C(CO)NC(=O)C(C(O)C7CNC(=N)N7C7OC(CO)C(O)C(O)C7O)NC(=O)C(C(O)C7CNC(=N)N7)NC6=O)cc5)C(O)C4O)C(O)C(O)C3O2)c1 (stereo not drawn) [Example 137, Cyclo[glycyl-β-methylphenylalanyl-O-[4-O-[4,6-O-(3-methoxybenzylidene)hexopyranosyl]-hexopyranosyl]tyrosyl-3-(2-iminoimidazolidin-4-yl)seryl-3-(3-hexopyranosyl-2-iminoimidazolidin-4-yl)serylseryl]]","median effective dose (ED50), Staphylococcus aureus-SMITH (GC 4543)",[1],0.24 mg/kg
same,MIC Staphylococcus aureus (ATCC 29213),Staphylococcus sp.,1 to 2 µg/mL
same,MIC Staphylococcus aureus (GC 1131),Staphylococcus sp.,2 µg/mL
same,MIC Staphylococcus aureus (GC 3051),Staphylococcus sp.,1 to 2 µg/mL
same,MIC Staphylococcus aureus (GC 3053),Staphylococcus sp.,2 to 4 µg/mL
same,MIC Staphylococcus aureus (GC 4541),Staphylococcus sp.,1 to 2 µg/mL
same,MIC Staphylococcus aureus (GC 4542),Staphylococcus sp.,1 to 2 µg/mL
same,MIC Staphylococcus aureus (GC 4544),Staphylococcus sp.,2 µg/mL
same,MIC Staphylococcus aureus (GC 4545),Staphylococcus sp.,2 to 4 µg/mL
same,MIC Staphylococcus aureus (GC 1131),"Staphylococcus sp.; inoculum 5×10^5 CFU/mL, strain GC 1131",2 µg/mL
same,MIC Staphylococcus aureus (ATCC 29213),Staphylococcus sp.; strain ATCC 29213,1 to 2 µg/mL
same,MIC Staphylococcus aureus (GC 3051),Staphylococcus sp.; strain GC 3051,1 to 2 µg/mL
same,MIC Staphylococcus aureus (GC 3053),Staphylococcus sp.; strain GC 3053,2 to 4 µg/mL
same,MIC Staphylococcus aureus (GC 4541),Staphylococcus sp.; strain GC 4541,1 to 2 µg/mL
same,MIC Staphylococcus aureus (GC 4542),Staphylococcus sp.; strain GC 4542,1 to 2 µg/mL
same,MIC Staphylococcus aureus-SMITH (GC 4543),Staphylococcus sp.; strain GC 4543,1 to 2 µg/mL
same,MIC Staphylococcus aureus (GC 4544),Staphylococcus sp.; strain GC 4544,2 µg/mL
same,MIC Staphylococcus aureus (GC 4545),Staphylococcus sp.; strain GC 4545,2 to 4 µg/mL
same,MIC Staphylococcus haemolyticus (GC 4546),Staphylococcus sp.; strain GC 4546,1 µg/mL
same,MIC Coagulase Negative Staphylococcus (GC 4547),Staphylococcus sp.; strain GC 4547,1 to 2 µg/mL
same,MIC Coagulase Negative Staphylococcus (GC 4548),Staphylococcus sp.; strain GC 4548,0.5 to 2 µg/mL
same,MIC Coagulase Negative Staphylococcus (GC 4549),Staphylococcus sp.; strain GC 4549,0.5 to 1 µg/mL
same,MIC Coagulase Negative Staphylococcus (GC 4551),Staphylococcus sp.; strain GC 4551,1 to 2 µg/mL
same,MIC Coagulase Negative Staphylococcus (GC 6257),Staphylococcus sp.; strain GC 6257,1 µg/mL
same,MIC Staphylococcus aureus-SMITH (GC 4543),Staphylococcus sp.; strain SMITH GC 4543,1 to 2 µg/mL
same,MIC Escherichia coli (ATCC 25922),Escherichia coli; strain ATCC 25922,64 µg/mL
same,MIC Escherichia coli (GC 4559),Escherichia coli; strain GC 4559,32 to 64 µg/mL
same,MIC Escherichia coli (GC 4560),Escherichia coli; strain GC 4560,1 µg/mL
same,MIC Enterococcus avium (GC 4558),Enterococcus sp.; Enterococcus avium (GC 4558),4 to 8 µg/mL
same,MIC Enterococcus faecalis (ATCC 29212),Enterococcus sp.; Enterococcus faecalis (ATCC 29212),4 to 8 µg/mL
same,MIC Enterococcus faecalis (GC 2242),Enterococcus sp.; Enterococcus faecalis (GC 2242),4 to 8 µg/mL
same,MIC Enterococcus faecalis (GC 2691),Enterococcus sp.; Enterococcus faecalis (GC 2691),4 to 8 µg/mL
same,MIC Enterococcus faecalis (GC 3059),Enterococcus sp.; Enterococcus faecalis (GC 3059),4 to 8 µg/mL
same,MIC Enterococcus faecalis (GC 4552),Enterococcus sp.; Enterococcus faecalis (GC 4552),4 to 8 µg/mL
same,MIC Enterococcus faecalis (GC 4553),Enterococcus sp.; Enterococcus faecalis (GC 4553),4 to 8 µg/mL
same,MIC Enterococcus faecalis (GC 4554),Enterococcus sp.; Enterococcus faecalis (GC 4554),4 to 8 µg/mL
same,MIC Enterococcus faecalis (GC 6189),Enterococcus sp.; Enterococcus faecalis (GC 6189),4 µg/mL
same,MIC Enterococcus faecium (GC 2243),Enterococcus sp.; Enterococcus faecium (GC 2243),4 to 8 µg/mL
same,MIC Enterococcus faecium (GC 4556),Enterococcus sp.; Enterococcus faecium (GC 4556),4 to 8 µg/mL
same,MIC Enterococcus faecium (GC 4557),Enterococcus sp.; Enterococcus faecium (GC 4557),2 to 4 µg/mL
same,MIC Enterococcus faecalis (ATCC 29212),Enterococcus sp.; strain ATCC 29212,4 to 8 µg/mL
same,MIC Enterococcus faecalis (GC 2242),Enterococcus sp.; strain GC 2242,4 to 8 µg/mL
same,MIC Enterococcus faecium (GC 2243),Enterococcus sp.; strain GC 2243,4 to 8 µg/mL
same,MIC Enterococcus faecalis (GC 2691),Enterococcus sp.; strain GC 2691,4 to 8 µg/mL
same,MIC Enterococcus faecalis (GC 3059),Enterococcus sp.; strain GC 3059,4 to 8 µg/mL
same,MIC Enterococcus faecalis (GC 4552),Enterococcus sp.; strain GC 4552,4 to 8 µg/mL
same,MIC Enterococcus faecalis (GC 4553),Enterococcus sp.; strain GC 4553,4 to 8 µg/mL
same,MIC Enterococcus faecalis (GC 4554),Enterococcus sp.; strain GC 4554,4 to 8 µg/mL
same,MIC Enterococcus faecium (GC 4556),Enterococcus sp.; strain GC 4556,4 to 8 µg/mL
same,MIC Enterococcus faecium (GC 4557),Enterococcus sp.; strain GC 4557,2 to 4 µg/mL
same,MIC Enterococcus avium (GC 4558),Enterococcus sp.; strain GC 4558,4 to 8 µg/mL
same,MIC Enterococcus faecalis (GC 6189),Enterococcus sp.; strain GC 6189,4 µg/mL
same,MIC Streptococcus agalactiae (GC 4564),Streptococcus sp.; Streptococcus agalactiae (GC 4564),0.5 µg/mL
same,MIC Streptococcus pneumoniae (ATCC 6301),Streptococcus sp.; Streptococcus pneumoniae (ATCC 6301),0.12 µg/mL
same,MIC Streptococcus pneumoniae (GC 1894),Streptococcus sp.; Streptococcus pneumoniae (GC 1894),<0.06 µg/mL
same,MIC Streptococcus pneumoniae (GC 4565),Streptococcus sp.; Streptococcus pneumoniae (GC 4565),0.25 µg/mL
same,MIC Streptococcus pyogenes (GC 4563),Streptococcus sp.; Streptococcus pyogenes (GC 4563),0.25 µg/mL
same,MIC Streptococcus pneumoniae (ATCC 6301),Streptococcus sp.; strain ATCC 6301,0.12 µg/mL
same,MIC Streptococcus pneumoniae (GC 1894),Streptococcus sp.; strain GC 1894,<0.06 µg/mL
same,MIC Streptococcus pyogenes (GC 4563),Streptococcus sp.; strain GC 4563,0.25 µg/mL
same,MIC Streptococcus agalactiae (GC 4564),Streptococcus sp.; strain GC 4564,0.5 µg/mL
same,MIC Streptococcus pneumoniae (GC 4565),Streptococcus sp.; strain GC 4565,0.25 µg/mL
